Measured values: patent US10261017B2, “Methods for detecting and categorizing skin sensitizers” (University of Mississippi, priority 2014, dated 2019)
Read-outs that look alike come from different tables or passages of the source. Marks after values point to notes of the source that are not given here.

Key:
[1] = Microplate spectrophotometric method (DCYA assay), fluorescence end-point; conditions: for DCYA 100-RI: RI = reactivity index, 2 equiv. electrophile, pH 10 buffer; for DCYA binary classification: FN: false negative; for DCYA binary classification: FP: false positive; for DCYA binary classification: TN: true negative; for DCYA binary classification: TP: true positive, positive if 100-RI <95; for DCYA assay reactivity / classification in words: microplate spectrophotometric method
[2] = system: thiol peptide; assay: Cys-DPRA (Direct Peptide Reactivity Assay), literature data; conditions: for Cys-DPRA binary classification: FN: false negative; for Cys-DPRA binary classification: FP: false positive; for Cys-DPRA binary classification: TN: true negative; for Cys-DPRA binary classification: TP: true positive
[3] = cited from earlier work; for LLNA (EC3): effective concentration, published literature (Table 1); for LLNA Classification: published literature; for LLNA EC3: reported results (Table 7)
[4] = system: ARE-dependent gene activity in a recombinant cell line; conditions: cited from earlier work
[5] = NMR method: depletion of electrophile signal on reaction with DCYA
From the text: The described example can be applied to pure chemicals and mixtures. The method includes the acquisition of at least one NMR spectrum, mixing an electrophile and a nucleophile to acquire an array of control spectra and an addition of catalyst to record an array of reaction spectra. It also includes the quantification of at least one signal and the comparison of the signal with a control and the classification of the reaction based on the depletion of potential sensitizer based on the quantified residual signal.
2,5-Dimethylfuran was used as internal standard. When necessary, characterization of the product(s) formed during the reaction(s) was performed by homonuclear ^1H connectivities using 2D-COSY experiments. […] Two- and three bond ^1H-^13C connectivities were determined by gradient-HMBC experiments in which the evolution period for long-range ^1H-^13C coupling constants was optimized for a ^2,3JC,H of 8 Hz. Through-space ^1H connectivities were determined using a NOESY experiment with a mixing time of 0.450 s. […] Toronto, Canada].
In a 3 mm NMR tube, 1 volume of DCYA (100) mM in CDCl3) was mixed with one volume of sensitizer (100 mM in CDCl3) to give a final concentration of 50 mM for both DCYA and the sensitizer. Control ^1H NMR spectra (reference spectra) were recorded at regular intervals of for a minimum of 5 min. […] All spectra were recorded at constant temperature. All experiments were conducted using the manufacturer's standard presaturation pulse programs and experimental conditions were chosen as explained in NMR spectroscopy section. The progress of the reaction was followed by the diminished peak areas of the resonances for the signal of interest. The spectra were phased, referenced, and integrated using NMR data elaboration software. The structural characterizations of the resulting adducts were confirmed by conducting additional 2D-NMR experiments when necessary.
Covalent reaction of DCYA with carvone is dependent on the activation of the nucleophilic group (ex. sulfhydryl group to the reactive thio-anion) under basic conditions. This reaction is strongly dependent on the nature of the nucleophile and may be modulated by careful choice of the model nucleophile and the reaction conditions.
The control spectra are used as reference spectra (FIG. 3A). All the spectra were subjected to automatic phase and baseline correction using a Bernstein polynomial fit (order 3). After these two steps, all the spectra were integrated over the areas of interest. […] Both vinylic and adduct peak areas were normalized relative to the internal standard signal peaks. […] The concentrations of both electrophile and adduct were then plotted as percentage against time (in minutes). (FIG. 5).

[6] = system: thiol peptide; conditions: cited from earlier work
[7] = based on depletion of electrophile signal at 30 min
[8] = conversion of test chemical at 90 min, 1 equiv. DCYA, 0.1 equiv. DBN, CDCl3

Row | Structure (SMILES) | DCYA 100-RI [1] | DCYA binary classification: FN [1] | DCYA binary classification: FP [1] | DCYA binary classification: TN [1] | DCYA binary classification: TP [1] | Cys-DPRA binary classification: FN [2] | Cys-DPRA binary classification: FP [2] | Cys-DPRA binary classification: TN [2] | Cys-DPRA binary classification: TP [2] | further results
1 | O=C(O)C(O)C(O)C(=O)O (stereo not shown) [Tartaric acid] | 100.7 | 0 | 0 | 1 | 0 | 0 | 0 | 1 | 0 | 
2 | O=C(OCc1ccccc1)c1ccccc1 [Benzyl benzoate] | 110.6 | 0 | 0 | 1 | 0 | 0 | 0 | 1 | 0 | 
3 | CC(C)=CCCC(C)=CC=O [Citral] | 88.8 | 0 | 0 | 0 | 1 | 0 | 0 | 0 | 1 | LLNA (EC3) [3]: 9.2%; LLNA Classification [3]: Moderate; LLNA EC3 [3]: 9.2%; KeratinoSens ™ EC3 ([4]; published literature (Table 1)): 67.36 µM; KeratinoSens ™ EC3 ([4]; reported results (Table 7)): 67.36 µM; NMR assay reactivity / classification in words [5]: moderate/low electrophilic behavior; Conversion at t30 (depletion of electrophile signal) ([5]; 30 min, 50 mM): 29%; NMR Method conversion ([5]; 90 min, 50 mM): 29%; NMR Classification [5, 7]: Weak-moderate
4 | COc1cc(/C=C/C(=O)CC(=O)/C=C/c2ccc(O)c(OC)c2)ccc1O [Curcumin] |  |  |  |  |  |  |  |  |  | Conversion at t30 (depletion of electrophile signal) ([5]; at 30 min, only one equivalent of DCYA, curcumin in DMSO-d6): 17^# %; Conversion at t30 (depletion of electrophile signal) ([5]; at 30 min, two equivalents of DCYA, curcumin in DMSO-d6): 43* %; NMR Method conversion ([5]; at 90 min, one equivalent of DCYA, DMSO-d6): 18%; NMR Method conversion ([5]; at 90 min, two equivalents of DCYA, DMSO-d6): 43%
5 | CC/C=C/C=O [t-2-Pentenal, trans-2-Pentenal] | 18.2 |  |  |  |  |  |  |  |  | NMR Classification [5]: Strong; Conversion at t30 (depletion of electrophile signal) ([5]; 30 min, 50 mM): 80%; NMR Method conversion ([5]; 90 min, 50 mM): 80%; DCYA assay reactivity / classification in words [1]: moderate reactive
6 | C=C1C(=O)O[C@@H]2/C=C(/C)[C@H](O)C[C@@H](O)C(=C)C[C@H](OC(=O)/C(C)=C\C)[C@@H]12 [3 epi-hydroxyisonobilin] |  |  |  |  |  |  |  |  |  | DCYA assay reactivity / classification in words [1]: highly reactive
7 | C=C(C)[C@@H]1CCC2=CC(=O)C[C@@H](C)[C@]2(C)C1 [Nootkatone] |  |  |  |  |  |  |  |  |  | Conversion at t30 (depletion of electrophile signal) ([5]; at 30 min, 1 equiv. DCYA): 0%; NMR Classification [5, 7]: Non; NMR Method conversion [5, 8]: 0%
8 | O=C(O)c1ccccc1O [Salicylic acid] | 106.9 | 0 | 0 | 1 | 0 | 0 | 0 | 1 | 0 | KeratinoSens ™ EC3 ([4]; reported results (Table 7)): >2000 µM
9 | O=C(O)C(=O)O [Oxalic acid] | 89.4 | 0 | 1 | 0 | 0 | 0 | 0 | 1 | 0 | 
10 | CC(O)C(=O)O (stereo not shown) [Lactic acid] | 100.1 | 0 | 0 | 1 | 0 | 0 | 0 | 1 | 0 | KeratinoSens ™ EC3 ([4]; reported results (Table 7)): >2000 µM
11 | O=C1CCO1 [Propionolactone] |  | 0 | 0 | 0 | 1 | 0 | 0 | 0 |  | 
12 | CC1=C(C=O)C(C)(C)CC=C1 [Safranal] | 82.9 | 0 | 0 | 0 | 1 | 0 | 0 | 0 | 1 | LLNA (EC3) [3]: 7.5%; LLNA Classification [3]: Moderate; LLNA EC3 [3]: 7.5%; Cys-DPRA, percentage of thiol peptide depleted ([6]; adopted from the literature): 90.5^15%; Cys-DPRA % Pept. remain. ([6]; reported results from the literature): 9.5%; NMR assay reactivity / classification in words [5]: less reactive by NMR in the short time frame; Conversion at t30 (depletion of electrophile signal) ([5]; at 30 min, 1 equiv. DCYA): 3%; NMR Classification [5, 7]: Non; NMR Method conversion [5, 8]: 4%
13 | O=Cc1ccccc1 [Benzaldehyde] | 98.1 | 0 | 0 | 1 | 0 | 0 | 1 | 0 | 0 | 
14 | Oc1cccc(O)c1 [Resorcinol] | 103.5 |  |  |  |  |  |  |  |  | DCYA assay reactivity / classification in words [1]: non-reactive
15 | CC=CC(=O)CC [4-Hex-3-en-one] | 2.8 | 0 | 0 | 0 | 1 | 0 | 0 | 0 |  | LLNA EC3 [3]: 4.2%
16 | C=C1CC(OC(=O)/C(C)=C/C)C2C(=C)C(=O)OC2/C=C(\C)C(O)CC1O (stereo not shown) [hydroxyiso-nobilin, hydroxyisonobilin] |  |  |  |  |  |  |  |  |  | DCYA assay reactivity / classification in words [1]: highly reactive
